Results: ChEMBL document CHEMBL1142424, “Octanorcucurbitane and cucurbitane triterpenoids from the tubers of Hemsleya endecaphylla with HIV-1 inhibitory activity” (J Nat Prod, 2008)
Values after ≈ are worked out from the molar mass of the structure shown.

Tests used:
[1] = Selectivity index, ratio of CC50 for human C8166 cells to EC50 for HIV1; type: functional
[2] = Cytotoxicity against human C8166 cells by MTT method; type: cell-based
[3] = test system: Human immunodeficiency virus 1; assay: Antiviral activity against HIV1 in C8166 cells after 72 hrs; type: functional, organism-based; conditions: Human immunodeficiency virus 1, C8166, 72 h

SMILES | Ratio CC50/EC50 [1] | CC50 [2] | EC50 [3]
CC(C)(O)CCC(=O)[C@@](C)(O)[C@H]1[C@H](O)C[C@@]2(C)[C@@H]3CC=C4[C@@H](C[C@H](O)C(=O)C4(C)C)[C@]3(C)C(=O)C[C@]12C | 50 | 6.5 µg/mL (≈ 12.5 µM) | 0.13 µg/mL (≈ 0.251 µM)
Cc1cn([C@H]2C[C@H](N=[N+]=[N-])[C@@H](CO)O2)c(=O)[nH]c1=O [ZIDOVUDINE] | >50000 | > 200 µg/mL | 0.0034 µg/mL (≈ 0.0127 µM)
CC(C)(O)/C=C/C[C@@](C)(O)[C@H]1[C@H](O)C[C@@]2(C)[C@@H]3CC=C4[C@@H](C[C@H](O)C(=O)C4(C)C)[C@]3(C)C(=O)C[C@]12C | 7.7 | 121 µg/mL (≈ 241 µM) | 15.8 µg/mL (≈ 31.4 µM)
CC(C)(O)/C=C/C(=O)[C@](C)(O)[C@H]1[C@H](O)C[C@@]2(C)[C@@H]3CC=C4[C@@H](C=C(O)C(=O)C4(C)C)[C@]3(C)C(=O)C[C@]12C [CUCURBITACIN I] | 20.6 | 14.4 µg/mL (≈ 28 µM) | 0.7 µg/mL (≈ 1.36 µM)
CC1(C)C(=O)[C@@H](O)C[C@@H]2C1=CC[C@@H]1[C@@]2(C)C(=O)C[C@]2(C)CC(=O)C[C@@]12C [ENDECAPHYLLACIN A] | >6.3 | > 200 µg/mL | 31.6 µg/mL (≈ 88.2 µM)
CC1(C)C(=O)C(O)=C[C@@H]2C1=CC[C@@H]1[C@@]2(C)C(=O)C[C@]2(C)CC(=O)C[C@@]12C [ENDECAPHYLLACIN B] | 5 | 62 µg/mL (≈ 174 µM) | 12 µg/mL (≈ 33.7 µM)
CC(=O)OC(C)(C)/C=C/C(=O)[C@](C)(O)[C@H]1[C@H](O)C[C@@]2(C)[C@@H]3CC=C4[C@H](C[C@H](O)C(=O)C4(C)C)[C@]3(C)C(=O)C[C@]12C [CUCURBITACIN B] | 16.7 | – | 0.09 µg/mL (≈ 0.161 µM)
CC(=O)OC(C)(C)CCC(=O)[C@](C)(O)[C@H]1[C@H](O)C[C@@]2(C)[C@@H]3CC=C4[C@@H](C[C@H](O)C(=O)C4(C)C)[C@]3(C)C(=O)C[C@]12C [23,24-DIHYDROCUCURBITACIN B] | 6.1 | 25.5 µg/mL (≈ 45.5 µM) | 4.2 µg/mL (≈ 7.49 µM)
CC(=O)OC(C)(C)/C=C/C(=O)[C@](C)(O)[C@H]1[C@H](O)C[C@@]2(C)[C@@H]3CC=C4[C@@H](C[C@H](O)C(=O)C4(C)C)[C@]3(C)C(=O)C[C@]12C [CUCURBITACIN B] | – | 1.5 µg/mL (≈ 2.68 µM) | –
CC(=O)OC(C)(C)CCC(=O)[C@](C)(O)[C@H]1[C@H](O)C[C@@]2(C)[C@@H]3CC=C4[C@@H](C=C(O)C(=O)C4(C)C)[C@]3(C)C(=O)C[C@]12C | 9.2 | 21.6 µg/mL (≈ 38.7 µM) | 2.4 µg/mL (≈ 4.3 µM)
